In general, Ki refers to a dissociation constant, usually derived from enzyme kinetics or from competition with a known ligand.

SMILES strings stand for the structures. Read-outs that look alike come from different tables or passages of the source.

We go through 20 compounds from US12528812B2 (Genentech, Inc., priority 2020, dated 2026).

Assay [1] relates to IL-13-stimulated STAT6 phosphorylation in human lung bronchial epithelial BEAS-2B cell line. In words: P-STAT6 BEAS-2B + IL-13 cell assay. The conditions noted are these: BEAS2B cells, IL13 stimulation, read-out: Cellular JAK1 PSTAT6 BEAS2B + IL13. It counts as cell-based. A digest of the protocol:
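Phospho-STAT6 (Tyr641) was quantified in lysates by MSD electrochemiluminescence after human IL-13 challenge (250 ng/mL stock, 15 min, 37 °C). Before that, BEAS-2B cells cultured 48 h had 1 h compound exposure over 10 concentrations. Percent of control was fitted to a four-parameter logistic model to give IC50.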

The target of assay [2] is T1, recombinant human JAK1 kinase domain protein (Residues 854-1154) (Homo sapiens, UniProt P23458).
T1 construct: human JAK1 kinase domain protein (Residues 854-1154); purchased Proteros Biostructures GmbH (Martinsried, Germany); host or cells: insect cells
Nature of the assay: JAK1 biochemical assay (LabChip mobility shift, Ki). The conditions noted are these: read-out: Biochem JAK1 Ki.

Assay [3] deals with Recombinant human JAK2 kinase domain protein (Residues 812-1132) (Homo sapiens, UniProt O60674). In words: JAK2 biochemical assay (LabChip mobility shift, Ki). The conditions noted are these: Biochem JAK2 Ki.
Recombinant human JAK2 kinase domain protein (Residues 812-1132), sequence (O60674 812-1132): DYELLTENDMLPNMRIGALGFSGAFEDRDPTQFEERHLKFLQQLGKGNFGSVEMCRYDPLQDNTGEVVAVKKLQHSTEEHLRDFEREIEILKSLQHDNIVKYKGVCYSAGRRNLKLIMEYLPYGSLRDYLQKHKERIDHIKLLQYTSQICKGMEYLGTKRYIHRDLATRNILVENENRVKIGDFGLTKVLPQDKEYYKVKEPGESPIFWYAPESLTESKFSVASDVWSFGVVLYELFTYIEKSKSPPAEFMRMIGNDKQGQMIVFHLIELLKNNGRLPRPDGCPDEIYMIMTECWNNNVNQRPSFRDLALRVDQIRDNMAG

T1 sequence (P23458 854-1154): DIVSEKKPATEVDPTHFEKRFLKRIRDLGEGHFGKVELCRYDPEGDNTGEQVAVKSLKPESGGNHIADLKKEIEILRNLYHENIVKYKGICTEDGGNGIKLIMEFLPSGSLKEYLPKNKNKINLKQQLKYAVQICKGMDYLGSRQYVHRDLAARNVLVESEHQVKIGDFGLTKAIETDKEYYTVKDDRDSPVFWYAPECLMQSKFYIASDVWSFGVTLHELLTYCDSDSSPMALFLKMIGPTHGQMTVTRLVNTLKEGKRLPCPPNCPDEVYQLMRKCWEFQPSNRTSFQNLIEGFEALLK

For `CN(C)C(=O)Cc1ccc(Oc2ccc(OC(F)F)c(-c3nn(C)cc3NC(=O)c3cnn4cccnc34)c2)cc1` [Example 129, N-[3-[2-(difluoromethoxy)-5-[4-[2-(dimethylamino)-2-oxo-ethyl]phenoxy]phenyl]-1-methyl-pyrazol-4-yl]pyrazolo[1,5-a]pyrimidine-3-carboxamide], the IC50 in assay [1] (Homo sapiens, BEAS-2B) was determined as 14 nM. The results for the Ki in assay [2] and in assay [3] were 0.27 nM and 0.15 nM, respectively.

Take `O=C(Nc1c[nH]nc1-c1cc(Oc2cccc(C3CNCCO3)c2)ccc1OC(F)F)c1cnn2cccnc12` (stereo not drawn) [Example 9, N-[3-[2-(difluoromethoxy)-5-(3-morpholin-2-ylphenoxy)phenyl]-1H-pyrazol-4-yl]pyrazolo[1,5-a]pyrimidine-3-carboxamide]: in assay [1] (Homo sapiens, BEAS-2B), the IC50 worked out at 93 nM. Besides, the Ki worked out at 0.34 nM in assay [2] and 0.36 nM in assay [3].

In the case of `Cn1cc(NC(=O)c2cnn3cccnc23)c(-c2cc(Oc3cccc(CN)c3)ccc2OC(F)F)n1` [Example 13, N-[3-[5-[3-(aminomethyl)phenoxy]-2-(difluoromethoxy)phenyl]-1-methyl-pyrazol-4-yl]pyrazolo[1,5-a]pyrimidine-3-carboxamide], the IC50 in assay [1] (Homo sapiens, BEAS-2B) came to 13 nM. Moreover, the Ki is 0.21 nM in assay [2] and 0.43 nM in assay [3].

As to `Cn1cc(NC(=O)c2cnn3cccnc23)c(-c2cc(Oc3cccc(C4CNC4)c3)ccc2OC(F)F)n1` [Example 87, N-[3-[5-[3-(azetidin-3-yl)phenoxy]-2-(difluoromethoxy)phenyl]-1-methyl-pyrazol-4-yl]pyrazolo[1,5-a]pyrimidine-3-carboxamide], in assay [1] (Homo sapiens, BEAS-2B), the IC50 was 36 nM. Besides, the inhibition constant (Ki) is 0.26 nM in assay [2] and 0.41 nM in assay [3].

`Cn1cc(NC(=O)c2cnn3cccnc23)c(-c2cc(Oc3cnn(CC4CNC4)c3)ccc2OC(F)F)n1` [Example 123, N-[3-[5-[1-(azetidin-3-ylmethyl)pyrazol-4-yl]oxy-2-(difluoromethoxy)phenyl]-1-methyl-pyrazol-4-yl]pyrazolo[1,5-a]pyrimidine-3-carboxamide]: in assay [1] (Homo sapiens, BEAS-2B), the IC50 turned out to be 370 nM. Further, the Ki in assay [2] stood at 0.61 nM; in assay [3], 0.74 nM.

For the compound `CN(C)C(=O)CNCc1cccc(Oc2ccc(OC(F)F)c(-c3nn(C)cc3NC(=O)c3cnn4cccnc34)c2)c1` [Example 55, N-[3-[2-(difluoromethoxy)-5-[3-[[[2-(dimethylamino)-2-oxo-ethyl]amino]methyl]phenoxy]phenyl]-1-methyl-pyrazol-4-yl]pyrazolo[1,5-a]pyrimidine-3-carboxamide], the IC50 in assay [1] (Homo sapiens, BEAS-2B) was found to be 48 nM. In addition, the Ki in assay [2] came out at 0.9 nM; in assay [3], 0.58 nM.

Regarding `Cn1cc(NC(=O)c2cnn3cccnc23)c(-c2cc(Oc3ccc(CN4CCCC(O)C4)cc3)ccc2OC(F)F)n1` (racemic) [Example 164, N-[3-[2-(difluoromethoxy)-5-[4-[[rac-(3S)-3-hydroxy-1-piperidyl]methyl]phenoxy]phenyl]-1-methyl-pyrazol-4-yl]pyrazolo[1,5-a]pyrimidine-3-carboxamide], the IC50 in assay [1] (Homo sapiens, BEAS-2B) worked out at 38 nM. Moreover, the Ki in assay [2] came to 3.2 nM; in assay [3] it was 1.5 nM.

Consider `Cn1cc(NC(=O)c2cnn3cccnc23)c(-c2cc(Oc3cnn(CCN)c3)ccc2OC(F)F)n1` [Example 126, N-[3-[5-[1-(2-aminoethyl)pyrazol-4-yl]oxy-2-(difluoromethoxy)phenyl]-1-methyl-pyrazol-4-yl]pyrazolo[1,5-a]pyrimidine-3-carboxamide], for which the IC50 in assay [1] (Homo sapiens, BEAS-2B) worked out at 67 nM. Also, the Ki turned out to be 1.1 nM in assay [2] and 0.91 nM in assay [3].

Take `COC1(c2cccc(Oc3ccc(OC(F)F)c(-c4nn(C)cc4NC(=O)c4cnn5cccnc45)c3)c2)CN(C)C1` [Example 71, N-[3-[2-(difluoromethoxy)-5-[3-(3-methoxy-1-methyl-azetidin-3-yl)phenoxy]phenyl]-1-methyl-pyrazol-4-yl]pyrazolo[1,5-a]pyrimidine-3-carboxamide]: the IC50 in assay [1] (Homo sapiens, BEAS-2B) was 47 nM. The Ki was 0.94 nM in assay [2] and 0.88 nM in assay [3].

Regarding `CN1CCCC(O)(Cn2cc(Oc3ccc(OC(F)F)c(-c4nn(C)cc4NC(=O)c4cnn5cccnc45)c3)cn2)CC1` (stereo not drawn) [Example 197, N-[3-[2-(difluoromethoxy)-5-[1-[(4-hydroxy-l-methyl-azepan-4-yl)methyl]pyrazol-4-yl]oxy-phenyl]-1-methyl-pyrazol-4-yl]pyrazolo[1,5-a]pyrimidine-3-carboxamide], the IC50 in assay [1] was 130 nM. In addition, the results for the Ki in assay [2] and in assay [3] were 0.81 nM and 0.51 nM, respectively.

As for `Cn1cc(NC(=O)c2cnn3cccnc23)c(-c2cc(Oc3ccc(CN)cc3)ccc2OC(F)F)n1` [Example 20, N-[3-[5-[4-(aminomethyl)phenoxy]-2-(difluoromethoxy)phenyl]-1-methyl-pyrazol-4-yl]pyrazolo[1,5-a]pyrimidine-3-carboxamide], the IC50 in assay [1] (Homo sapiens, BEAS-2B) amounted to 19 nM. In addition, the Ki in assay [2] stood at 1.5 nM; in assay [3] it was 0.59 nM.

With `Cn1cc(NC(=O)c2cnn3cccnc23)c(-c2cc(Oc3cccc(CNC(CO)CO)c3)ccc2OC(F)F)n1` [Example 48, N-[3-[2-(difluoromethoxy)-5-[3-[[[2-hydroxy-1-(hydroxymethyl)ethyl]amino]methyl]phenoxy]phenyl]-1-methyl-pyrazol-4-yl]pyrazolo[1,5-a]pyrimidine-3-carboxamide], the IC50 in assay [1] (Homo sapiens, BEAS-2B) turned out to be 86 nM. The Ki came to 0.76 nM in assay [2] and 0.64 nM in assay [3].

In the case of `Cc1nn(C)cc1Oc1ccc(OC(F)F)c(-c2nn(C)cc2NC(=O)c2cnn3cccnc23)c1` [Example 153, N-[3-[2-(difluoromethoxy)-5-(1,3-dimethylpyrazol-4-yl)oxy-phenyl]-1-methyl-pyrazol-4-yl]pyrazolo[1,5-a]pyrimidine-3-carboxamide], the IC50 in assay [1] (Homo sapiens, BEAS-2B) is 27 nM. The Ki was found to be 0.46 nM in assay [2] and 0.23 nM in assay [3].

With `CCN1CCC(O)(Cn2cc(Oc3ccc(OC(F)F)c(-c4nn(C)cc4NC(=O)c4cnn5cccnc45)c3)cn2)CC1` [Example 212, N-[3-[2-(difluoromethoxy)-5-[1-[(1-ethyl-4-hydroxy-4-piperidyl)methyl]pyrazol-4-yl]oxy-phenyl]-1-methyl-pyrazol-4-yl]pyrazolo[1,5-a]pyrimidine-3-carboxamide], in assay [1] (Homo sapiens, BEAS-2B), the IC50 worked out at 120 nM. Also, the Ki worked out at 0.84 nM in assay [2] and 0.6 nM in assay [3].

Turning to `Cn1cc(NC(=O)c2cnn3cccnc23)c(-c2cc(Oc3ccc(CN4CCOCC4)cc3)ccc2OC(F)F)n1` [Example 61, N-[3-[2-(difluoromethoxy)-5-[4-(morpholinomethyl)phenoxy]phenyl]-1-methyl-pyrazol-4-yl]pyrazolo[1,5-a]pyrimidine-3-carboxamide], the IC50 in assay [1] (Homo sapiens, BEAS-2B) amounted to 130 nM. The Ki in assay [2] came out at 5.1 nM; in assay [3] it was 2.9 nM.

Consider `Cn1cc(NC(=O)c2cnn3cccnc23)c(-c2cc(Oc3ccc(CN4CCC[C@@H]4CO)cc3)ccc2OC(F)F)n1` (racemic) [Example 171, N-[3-[2-(difluoromethoxy)-5-[4-[[rac-(2R)-2-(hydroxymethyl)pyrrolidin-1-yl]methyl]phenoxy]phenyl]-1-methyl-pyrazol-4-yl]pyrazolo[1,5-a]pyrimidine-3-carboxamide], for which, in assay [1] (Homo sapiens, BEAS-2B), the IC50 was 50 nM. Also, the values for the Ki in assay [2] and in assay [3] were 1.9 nM and 0.95 nM, respectively.

Regarding `Cn1cc(NC(=O)c2cnn3cccnc23)c(-c2cc(Oc3cnn([C@H]4CCNC4)c3)ccc2OC(F)F)n1` (racemic) [Example 144, N-[3-[2-(difluoromethoxy)-5-[1-[rac-(3S)-pyrrolidin-3-yl]pyrazol-4-yl]oxy-phenyl]-1-methyl-pyrazol-4-yl]pyrazolo[1,5-a]pyrimidine-3-carboxamide], the IC50 in assay [1] (Homo sapiens, BEAS-2B) was 160 nM. Also, the Ki was 3.9 nM in assay [2] and 3.7 nM in assay [3].

Regarding `Cn1cc(NC(=O)c2cnn3cccnc23)c(-c2cc(Oc3cnn(C4CC(O)C4)c3)ccc2OC(F)F)n1` (stereo not drawn) [Example 119, N-[3-[2-(difluoromethoxy)-5-[1-(3-hydroxycyclobutyl)pyrazol-4-yl]oxy-phenyl]-1-methyl-pyrazol-4-yl]pyrazolo[1,5-a]pyrimidine-3-carboxamide], in assay [1], the IC50 came out at 41 nM. Moreover, the Ki in assay [2] amounted to 0.9 nM; in assay [3], 0.52 nM.

Consider `CN1CC(n2cc(Oc3ccc(OC(F)F)c(-c4nn(C)cc4NC(=O)c4cnn5cccnc45)c3)cn2)C1` [Example 115, N-[3-[2-(difluoromethoxy)-5-[1-(1-methylazetidin-3-yl)pyrazol-4-yl]oxy-phenyl]-1-methyl-pyrazol-4-yl]pyrazolo[1,5-a]pyrimidine-3-carboxamide], for which, in assay [1] (Homo sapiens, BEAS-2B), the IC50 is 48 nM. The inhibition constant (Ki) in assay [2] came out at 3 nM; in assay [3] it was 1.6 nM.

Turning to `CN1CC(CC#N)(n2cc(Oc3ccc(OC(F)F)c(-c4nn(C)cc4NC(=O)c4cnn5cccnc45)c3)cn2)C1` [Example 117, N-[3-[5-[1-[3-(cyanomethyl)-1-methyl-azetidin-3-yl]pyrazol-4-yl]oxy-2-(difluoromethoxy)phenyl]-1-methyl-pyrazol-4-yl]pyrazolo[1,5-a]pyrimidine-3-carboxamide], the IC50 in assay [1] (Homo sapiens, BEAS-2B) came to 84 nM. Moreover, the Ki amounted to 1.5 nM in assay [2] and 0.66 nM in assay [3].
